The text below walks through data of the supplement of paper PMC10307832.

What all share (experiment): relative viability (nuclei count vs DMSO), 5 days (fraction); higher = more cells survive
Compound in the assay “Bicalutamide + Olaparib”: CC(O)(CS(=O)(=O)c1ccc(F)cc1)C(=O)Nc1ccc(C#N)c(C(F)(F)F)c1 [Bicalutamide] + O=C(c1cc(Cc2n[nH]c(=O)c3ccccc23)ccc1F)N1CCN(C(=O)C2CC2)CC1 [Olaparib] (partner 8 µM)
The method in brief: (§1)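 After 5 days of treatment, lung cancer cells in 1536-well plates were fixed and stained in a single step (final 0.05% Triton X-100, 1% formaldehyde, 1 ug/ml Hoechst) and their nuclei counted on 4× images. Treatment had been applied by pin tool the day after seeding as one drug alone or as a fixed anchor-drug dose with five library-drug doses (not always all listed) in √10 steps. Relative viability is the nuclei count of treated wells divided by that of vehicle wells, and values are medians of duplicate plates.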

Compound in assay [1]: C(C(=O)C(=O)O)Br [Bromopyruvate] + COc1cc2c(Oc3ccc(NC(=O)C4(C(=O)Nc5ccc(F)cc5)CC4)cc3F)ccnc2cc1OCCCN1CCOCC1 [Foretinib] (partner 0.25 µM)
The method in brief: as §1

Compound in assay [2]: CC(O)(CS(=O)(=O)c1ccc(F)cc1)C(=O)Nc1ccc(C#N)c(C(F)(F)F)c1 [Bicalutamide] + Cc1cc(Nc2cc(N3CCN(C)CC3)nc(Sc3ccc(NC(=O)C4CC4)cc3)n2)n[nH]1 [Tozasertib] (partner 0.1 µM)
In a few lines:
as §1

Compound in assay [3]: C(C(=O)C(=O)O)Br [Bromopyruvate] + CS(=O)(=O)N1CCN(Cc2cc3nc(-c4cccc5[nH]ncc45)nc(N4CCOCC4)c3s2)CC1 [Pictilisib] (partner 1 µM)
In a few lines:
as §1

In the case of LCLC-103H, the relative viability was found to be 0.775 in the assay with Bicalutamide + Olaparib (first compound 0.08 µM); 0.785 with Bicalutamide + Olaparib (first compound 0.253 µM); 0.835 with Bicalutamide + Olaparib (first compound 0.8 µM); 0.75 in the assay with Bicalutamide + Olaparib (first compound 2.53 µM); 0.568 in assay [1] (first compound 1 µM); 0.748 in assay [1] (first compound 3.162 µM). For the same cell line, the relative viability in assay [1] (first compound 10 µM) is 0.97; in assay [1] (first compound 31.62 µM) it was 0.797; in assay [1] (first compound 100 µM), 1.02; in assay [2] (first compound 0.08 µM), 0.546; in assay [2] (first compound 0.253 µM) it was 0.412; in assay [2] (first compound 0.8 µM) it was 0.468. Moreover, the relative viability worked out at 0.411 in assay [2] (first compound 2.53 µM); 0.508 in assay [3] (first compound 1 µM); 0.596 in assay [3] (first compound 3.162 µM); 0.684 in assay [3] (first compound 10 µM); 0.524 in assay [3] (first compound 31.62 µM); 0.592 in assay [3] (first compound 100 µM).

With EKVX, the relative viability in the assay with Bicalutamide + Olaparib (first compound 0.08 µM) is 0.917; with Bicalutamide + Olaparib (first compound 0.253 µM) it was 0.861; with Bicalutamide + Olaparib (first compound 0.8 µM) it was 1; with Bicalutamide + Olaparib (first compound 2.53 µM), 0.79; in assay [1] (first compound 1 µM) it was 0.83; in assay [1] (first compound 3.162 µM), 0.779. Further, the relative viability came to 0.929 in assay [1] (first compound 10 µM); 0.819 in assay [1] (first compound 31.62 µM); 1.34 in assay [1] (first compound 100 µM); 0.372 in assay [2] (first compound 0.08 µM); 0.315 in assay [2] (first compound 0.253 µM); 0.386 in assay [2] (first compound 0.8 µM). For the same cell line, the relative viability stood at 0.371 in assay [2] (first compound 2.53 µM); 0.412 in assay [3] (first compound 1 µM); 0.437 in assay [3] (first compound 3.162 µM); 0.444 in assay [3] (first compound 10 µM); 0.458 in assay [3] (first compound 31.62 µM); 0.472 in assay [3] (first compound 100 µM).

For LXF-289, the relative viability was determined as 1.04 in the assay with Bicalutamide + Olaparib (first compound 0.08 µM); 1.08 in the assay with Bicalutamide + Olaparib (first compound 0.253 µM); 1.18 in the assay with Bicalutamide + Olaparib (first compound 0.8 µM); 1.01 with Bicalutamide + Olaparib (first compound 2.53 µM); 1.02 in assay [1] (first compound 1 µM); 0.997 in assay [1] (first compound 3.162 µM). Moreover, the relative viability in assay [1] (first compound 10 µM) was found to be 0.965; in assay [1] (first compound 31.62 µM), 1.01; in assay [1] (first compound 100 µM), 1.04; in assay [2] (first compound 0.08 µM), 0.206; in assay [2] (first compound 0.253 µM) it was 0.182; in assay [2] (first compound 0.8 µM) it was 0.198. For the same cell line, the relative viability came out at 0.157 in assay [2] (first compound 2.53 µM); 0.756 in assay [3] (first compound 1 µM); 0.758 in assay [3] (first compound 3.162 µM); 0.802 in assay [3] (first compound 10 µM); 0.867 in assay [3] (first compound 31.62 µM); 0.816 in assay [3] (first compound 100 µM).

As to ABC-1, the relative viability came out at 0.815 in the assay with Bicalutamide + Olaparib (first compound 0.08 µM); 0.975 in the assay with Bicalutamide + Olaparib (first compound 0.253 µM); 1.21 in the assay with Bicalutamide + Olaparib (first compound 0.8 µM); 1.01 with Bicalutamide + Olaparib (first compound 2.53 µM); 1.09 in assay [1] (first compound 1 µM); 0.941 in assay [1] (first compound 3.162 µM). Besides, the relative viability in assay [1] (first compound 10 µM) is 1.14; in assay [1] (first compound 31.62 µM) it was 0.833; in assay [1] (first compound 100 µM) it was 0.95; in assay [2] (first compound 0.08 µM), 0.179; in assay [2] (first compound 0.253 µM) it was 0.168; in assay [2] (first compound 0.8 µM), 0.17. Further, the relative viability in assay [2] (first compound 2.53 µM) was 0.167; in assay [3] (first compound 1 µM), 0.573; in assay [3] (first compound 3.162 µM), 0.881; in assay [3] (first compound 31.62 µM), 0.849; in assay [3] (first compound 100 µM), 0.686.

With NCI-H661, the relative viability with Bicalutamide + Olaparib (first compound 0.08 µM) amounted to 0.815; with Bicalutamide + Olaparib (first compound 0.253 µM), 0.768; with Bicalutamide + Olaparib (first compound 0.8 µM), 0.74; with Bicalutamide + Olaparib (first compound 2.53 µM), 0.779; in assay [1] (first compound 1 µM), 1.02; in assay [1] (first compound 3.162 µM) it was 1.02. The relative viability in assay [1] (first compound 10 µM) stood at 1.05; in assay [1] (first compound 31.62 µM), 1.02; in assay [1] (first compound 100 µM) it was 0.994; in assay [2] (first compound 0.08 µM), 0.367; in assay [2] (first compound 0.253 µM), 0.355; in assay [2] (first compound 0.8 µM), 0.362. Moreover, the relative viability in assay [2] (first compound 2.53 µM) was found to be 0.359; in assay [3] (first compound 1 µM), 0.445; in assay [3] (first compound 3.162 µM), 0.349; in assay [3] (first compound 10 µM), 0.458; in assay [3] (first compound 31.62 µM), 0.337; in assay [3] (first compound 100 µM), 0.354.

On to NCI-H1650, for which the relative viability with Bicalutamide + Olaparib (first compound 0.08 µM) was found to be 0.989; in the assay with Bicalutamide + Olaparib (first compound 0.253 µM), 0.759; with Bicalutamide + Olaparib (first compound 0.8 µM), 0.899; with Bicalutamide + Olaparib (first compound 2.53 µM), 0.723; in assay [1] (first compound 1 µM), 1.16; in assay [1] (first compound 3.162 µM), 1.25. Also, the relative viability in assay [1] (first compound 10 µM) was 1.12; in assay [1] (first compound 31.62 µM), 1.42; in assay [1] (first compound 100 µM), 0.747; in assay [2] (first compound 0.08 µM) it was 0.501; in assay [2] (first compound 0.253 µM), 0.395; in assay [2] (first compound 0.8 µM), 0.341. Besides, the relative viability was determined as 0.388 in assay [2] (first compound 2.53 µM); 0.545 in assay [3] (first compound 1 µM); 0.532 in assay [3] (first compound 3.162 µM); 0.567 in assay [3] (first compound 10 µM); 0.651 in assay [3] (first compound 31.62 µM); 0.512 in assay [3] (first compound 100 µM).

As to NCI-H2087, the relative viability in the assay with Bicalutamide + Olaparib (first compound 0.08 µM) stood at 0.527; with Bicalutamide + Olaparib (first compound 0.253 µM), 0.51; with Bicalutamide + Olaparib (first compound 0.8 µM), 0.75; with Bicalutamide + Olaparib (first compound 2.53 µM), 0.572; in assay [1] (first compound 1 µM), 1.13; in assay [1] (first compound 3.162 µM), 1.17. The relative viability in assay [1] (first compound 10 µM) was found to be 0.97; in assay [1] (first compound 31.62 µM), 1.12; in assay [1] (first compound 100 µM), 0.595; in assay [2] (first compound 0.08 µM), 0.234; in assay [2] (first compound 0.253 µM) it was 0.226; in assay [2] (first compound 0.8 µM), 0.262. Further, the relative viability in assay [2] (first compound 2.53 µM) was determined as 0.219; in assay [3] (first compound 1 µM), 0.834; in assay [3] (first compound 3.162 µM), 0.984; in assay [3] (first compound 10 µM), 0.96; in assay [3] (first compound 31.62 µM), 0.844; in assay [3] (first compound 100 µM), 0.886.

As to NCI-H1793, the relative viability amounted to 0.799 with Bicalutamide + Olaparib (first compound 0.08 µM); 1.38 with Bicalutamide + Olaparib (first compound 0.8 µM); 0.744 with Bicalutamide + Olaparib (first compound 2.53 µM); 0.718 in assay [1] (first compound 1 µM); 0.821 in assay [1] (first compound 3.162 µM); 0.833 in assay [1] (first compound 10 µM). Moreover, the relative viability in assay [1] (first compound 31.62 µM) was determined as 0.736; in assay [1] (first compound 100 µM) it was 0.684; in assay [2] (first compound 0.08 µM), 0.36; in assay [2] (first compound 0.253 µM), 0.257; in assay [2] (first compound 0.8 µM), 0.313; in assay [2] (first compound 2.53 µM), 0.309. Besides, the relative viability in assay [3] (first compound 1 µM) stood at 0.391; in assay [3] (first compound 3.162 µM), 0.32; in assay [3] (first compound 10 µM), 0.305; in assay [3] (first compound 31.62 µM) it was 0.272; in assay [3] (first compound 100 µM) it was 0.237.
